ChEMBL document CHEMBL1944529, “Structure-based design, synthesis and structure-activity relationships of dibenzosuberyl- and benzoate-substituted tropines as ligands for acetylcholine-binding protein” (Bioorg Med Chem Lett, 2012)
pKi: −log10 of the molar value.

Assays:
[1] = molecular target: T1, Soluble acetylcholine receptor (Aplysia californica, UniProt Q8WSF8); test: Displacement of [3H]epibatidine from Aplysia californica acetylcholine binding protein expressed using baculoviral system after 1.5 hrs by scintillation counting
T1 sequence (Q8WSF8 whole entry): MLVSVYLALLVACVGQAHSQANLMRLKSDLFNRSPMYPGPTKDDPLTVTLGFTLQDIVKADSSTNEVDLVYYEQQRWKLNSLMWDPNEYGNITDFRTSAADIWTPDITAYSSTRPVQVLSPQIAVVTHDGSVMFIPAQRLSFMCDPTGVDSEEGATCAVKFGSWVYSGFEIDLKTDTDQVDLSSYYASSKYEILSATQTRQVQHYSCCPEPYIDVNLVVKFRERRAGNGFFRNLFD

[2] = molecular target: Acetylcholine-binding protein (Lymnaea stagnalis, UniProt P58154); test: Displacement of [3H]epibatidine from Lymnaea stagnalis acetylcholine binding protein expressed using baculoviral system after 1.5 hrs by scintillation counting
[3] = molecular target: Neuronal acetylcholine receptor; alpha4/beta2 (Homo sapiens, UniProt P17787+P43681); test: Displacement of [3H]epibatidine from human nAChR alpha4beta2 receptor expressed in human HEK293T cells by scintillation counting; assay type: cell-based, HEK-293T
[4] = molecular target: Neuronal acetylcholine receptor subunit alpha-7 (Homo sapiens, UniProt P36544); test: Displacement of [3H]MLA from nAChR alpha7 receptor in human SH-SY5Y cells by scintillation counting; assay type: cell-based
Sequence of Neuronal acetylcholine receptor subunit alpha-7 (P36544 whole entry): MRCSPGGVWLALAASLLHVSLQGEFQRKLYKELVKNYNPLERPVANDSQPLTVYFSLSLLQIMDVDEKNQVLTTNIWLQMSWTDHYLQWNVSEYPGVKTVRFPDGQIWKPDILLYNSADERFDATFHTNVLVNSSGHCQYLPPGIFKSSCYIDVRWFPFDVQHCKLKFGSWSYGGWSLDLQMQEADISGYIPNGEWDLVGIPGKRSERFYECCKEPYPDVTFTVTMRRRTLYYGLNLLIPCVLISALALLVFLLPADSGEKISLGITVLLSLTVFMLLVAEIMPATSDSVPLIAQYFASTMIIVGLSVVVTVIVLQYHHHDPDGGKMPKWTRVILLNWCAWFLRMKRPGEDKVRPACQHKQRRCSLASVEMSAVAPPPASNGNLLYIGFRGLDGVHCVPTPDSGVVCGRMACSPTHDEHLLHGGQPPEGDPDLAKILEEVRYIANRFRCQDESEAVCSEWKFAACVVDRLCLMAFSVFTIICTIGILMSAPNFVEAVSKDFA

Sequence of Acetylcholine-binding protein (P58154 whole entry): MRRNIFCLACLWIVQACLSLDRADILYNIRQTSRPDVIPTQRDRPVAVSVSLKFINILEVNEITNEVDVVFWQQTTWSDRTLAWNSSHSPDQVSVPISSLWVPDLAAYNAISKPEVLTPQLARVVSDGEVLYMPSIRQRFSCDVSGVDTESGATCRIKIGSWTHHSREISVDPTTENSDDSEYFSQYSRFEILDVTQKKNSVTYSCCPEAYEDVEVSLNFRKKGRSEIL
Sequence of Neuronal acetylcholine receptor; alpha4/beta2 (P17787 whole entry): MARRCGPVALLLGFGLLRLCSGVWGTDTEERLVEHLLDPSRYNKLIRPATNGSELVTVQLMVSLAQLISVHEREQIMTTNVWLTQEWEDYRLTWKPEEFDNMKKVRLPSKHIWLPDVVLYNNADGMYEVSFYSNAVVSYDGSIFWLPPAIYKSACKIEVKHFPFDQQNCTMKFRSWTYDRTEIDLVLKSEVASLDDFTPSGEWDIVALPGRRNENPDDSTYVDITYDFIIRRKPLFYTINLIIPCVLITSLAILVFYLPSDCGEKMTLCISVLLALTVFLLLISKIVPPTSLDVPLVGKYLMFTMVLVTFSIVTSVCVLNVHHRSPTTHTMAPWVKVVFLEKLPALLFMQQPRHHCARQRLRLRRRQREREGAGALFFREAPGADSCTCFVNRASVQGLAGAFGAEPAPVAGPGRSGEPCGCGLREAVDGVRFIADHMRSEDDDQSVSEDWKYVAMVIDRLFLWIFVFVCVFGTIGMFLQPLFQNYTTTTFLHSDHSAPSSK
Sequence of Neuronal acetylcholine receptor; alpha4/beta2 (P43681 whole entry): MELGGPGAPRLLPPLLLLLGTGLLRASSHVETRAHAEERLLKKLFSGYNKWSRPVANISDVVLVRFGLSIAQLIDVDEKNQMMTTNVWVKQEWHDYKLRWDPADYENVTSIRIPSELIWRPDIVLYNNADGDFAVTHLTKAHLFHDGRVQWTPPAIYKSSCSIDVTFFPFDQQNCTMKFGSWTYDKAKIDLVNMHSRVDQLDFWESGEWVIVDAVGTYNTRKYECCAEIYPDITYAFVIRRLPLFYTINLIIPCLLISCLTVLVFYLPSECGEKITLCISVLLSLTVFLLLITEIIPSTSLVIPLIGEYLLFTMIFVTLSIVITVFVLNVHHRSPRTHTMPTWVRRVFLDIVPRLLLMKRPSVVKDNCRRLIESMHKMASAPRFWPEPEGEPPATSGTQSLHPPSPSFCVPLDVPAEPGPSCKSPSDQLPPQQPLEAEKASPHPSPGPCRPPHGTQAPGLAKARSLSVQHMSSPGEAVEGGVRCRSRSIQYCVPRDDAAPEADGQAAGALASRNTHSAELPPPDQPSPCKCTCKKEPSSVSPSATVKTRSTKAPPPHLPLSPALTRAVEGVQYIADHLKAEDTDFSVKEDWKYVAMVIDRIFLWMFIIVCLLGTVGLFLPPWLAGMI

Structure (SMILES) | pKi [1] | pKi [2] | pKi [3] | pKi [4]
c1ccc(CN2[C@@H]3CC[C@H]2C[C@@H](OC2c4ccccc4CCc4ccccc42)C3)cc1 | 5.00 | 6.60 | – | –
c1ccc2c(c1)CCc1ccccc1C2O[C@H]1C[C@H]2CC[C@@H](C1)N2 | 5.00 | 6.00 | – | –
C[N+]1(C)[C@@H]2CC[C@H]1C[C@@H](OC1c3ccccc3CCc3ccccc31)C2 | 6.00 | 6.50 | < 4.50 | 6.00
c1ccc(CCN2[C@@H]3CC[C@H]2C[C@@H](OC2c4ccccc4CCc4ccccc42)C3)cc1 | 5.00 | 7.00 | < 4.50 | 4.90
C[N+]1(CCc2ccccc2)[C@@H]2CC[C@H]1C[C@@H](OC1c3ccccc3CCc3ccccc31)C2 (stereo partly drawn) | 6.20 | 7.40 | < 4.50 | 5.80
O=C(O[C@H]1C[C@H]2CC[C@@H](C1)N2)c1ccccc1 | 5.30 | 6.10 | < 4.50 | 5.50
O=C(O[C@@H]1C[C@H]2CC[C@@H](C1)N2)c1ccccc1 | 4.80 | 5.10 | – | –
CN1[C@@H]2CC[C@H]1C[C@H](OC(=O)c1ccccc1)C2 | 4.80 | 5.20 | – | –
O=C(O[C@H]1C[C@H]2CC[C@@H](C1)N2CCc1ccccc1)c1ccccc1 | 7.50 | 7.10 | < 4.50 | 5.10
O=C(O[C@@H]1C[C@H]2CC[C@@H](C1)N2CCc1ccccc1)c1ccccc1 | 6.00 | 6.40 | < 4.50 | 5.30
C[N+]1(CCc2ccccc2)[C@@H]2CC[C@H]1C[C@@H](OC(=O)c1ccccc1)C2 (stereo partly drawn) | 6.80 | 7.50 | < 4.50 | 5.20
O=C(O[C@H]1C[C@H]2CC[C@@H](C1)N2C[C@@H](O)c1ccccc1)c1ccccc1 | 6.10 | 5.90 | – | –
O=C(O[C@H]1C[C@H]2CC[C@@H](C1)N2C[C@H](O)c1ccccc1)c1ccccc1 | 7.00 | 6.10 | – | –
C[N+]1(CC(O)c2ccccc2)[C@@H]2CC[C@H]1C[C@@H](OC(=O)c1ccccc1)C2 (stereo partly drawn) | 5.70 | 6.90 | < 4.50 | 5.00
C[N+]1(C[C@H](O)c2ccccc2)[C@@H]2CC[C@H]1C[C@@H](OC(=O)c1ccccc1)C2 (stereo partly drawn) | 6.10 | 6.90 | – | –
O=C(O[C@H]1C[C@H]2CC[C@@H](C1)N2CC(O)c1cccc(O)c1)c1ccccc1 (stereo partly drawn) | 6.20 | 6.10 | < 4.50 | 4.60
O=C(O[C@H]1C[C@H]2CC[C@@H](C1)N2CC(O)c1cc(O)cc(O)c1)c1ccccc1 (stereo partly drawn) | 5.10 | 6.40 | < 4.50 | 4.80
O=C(O[C@@H]1C[C@H]2CC[C@@H](C1)N2CC(O)c1cc(O)cc(O)c1)c1ccccc1 (stereo partly drawn) | 4.70 | 5.70 | < 4.50 | 4.90
O=C(O[C@H]1C[C@H]2CC[C@@H](C1)N2CCc1cccc(O)c1)c1ccccc1 | 6.70 | 7.00 | < 4.50 | 4.90
OC(CN1[C@@H]2CC[C@H]1C[C@@H](OC1c3ccccc3CCc3ccccc31)C2)c1ccccc1 (mixture of isomers) | 4.90 | 5.70 | < 4.50 | 4.70
Oc1cccc(C(O)CN2[C@@H]3CC[C@H]2C[C@@H](OC2c4ccccc4CCc4ccccc42)C3)c1 (mixture of isomers) | 4.50 | 5.70 | < 4.50 | 4.40
O=C(O[C@H]1C[C@H]2CC[C@@H](C1)N2CC(O)c1ccccc1)c1ccccc1 (mixture of isomers) | 6.80 | 6.20 | < 4.50 | 4.90
CN1[C@@H]2CC[C@H]1C[C@@H](OC(=O)c1ccccc1)C2 [BENZOYL TROPINE] | 5.40 | 5.70 | < 4.50 | 4.80
CN1[C@@H]2CC[C@H]1C[C@@H](OC1c3ccccc3CCc3ccccc31)C2 [DEPTROPINE] | 5.20 | 5.70 | – | –
CN1[C@@H](CC(=O)c2ccccc2)CCC[C@H]1C[C@H](O)c1ccccc1 [LOBELINE] | 8.60 | – | – | 5.10
CN1CCC[C@H]1c1cccnc1 [NICOTINE] | 5.60 | – | – | –
